Here are results for 65 compounds from a melting point compilation (Tetko et al.; mined from patent text by program, amines drawn as free bases though some values may be those of a salt).

In the case of `O=C(O)C1Cc2ccc(OCc3ccccc3)cc2O1` (stereo not given), the melting point (usually the temperature of the solid-liquid transition) was in the range of 118 to 119 °C. `CC(C)(C)C1CC(=Cc2ccccc2)C(=O)C(=Cc2ccccc2)C1` (stereo not given) returned a melting point of 137 to 139 °C. The compound `N=C(N)NC(=O)Cn1c(Cc2ccccc2)ccc1-c1ccccc1` came in with a melting point of 82 to 84 °C. Compound `Cc1oc(-c2ccco2)nc1CCc1ccc(CCCC2OC(=O)NC2=O)cc1` (stereo not given) displayed a melting point of 123 to 124 °C. `CCCCCCCCCCCCCCOc1ccc(CCN(C(C)=O)c2cccc(Cc3nccs3)c2)cc1` registered a melting point of 46 to 50 °C. Compound `O=C(NCc1ccccc1)C1Cc2cc(Br)cc3[nH]c(=O)c(=O)n1c23` (stereo not given) gave a melting point of 152 to 153 °C. On to `Cc1cc(NS(=O)(=O)c2ccccc2)cc(C)c1SC[N+](=O)[O-]`, for which the melting point fell in the range of 146 to 148 °C.

As for `O=c1[nH]c2ccccc2n1CCCN1CCN(C(c2ccc(Cl)cc2)c2cccnc2)CC1` (stereo not given), the melting point was 183 °C. In turn, `O=C(Nc1nc2ccccc2[nH]1)c1ccc(Cl)c(Cl)c1` gave a melting point of 251 to 252 °C. Turning to `CC(C)CN1CCC2(CC1)CSC1=C(O2)c2ccccc2C(=O)C1=O`, the melting point was 158 to 161 °C. Compound `Cc1ccc(C(=O)O)c(Nc2cc(C)nn2C)c1` showed a melting point of 188 to 192 °C. `CC(=O)c1ccc2c(c1)OCC(C(=O)O)O2` (stereo not given) displayed a melting point of 159 to 162 °C. `CC(C)c1nn(C(=O)NC(C)(C)CCc2ccccc2Cl)c(=O)n1N` showed a melting point of 159 °C.

`CCOC(=O)c1nc(C=Cc2cccc(Cl)c2)oc1C`: the melting point was 116 to 117 °C.

`Cc1ccc(N2CCCN(c3ccnc4sc(C(N)=O)c(N)c34)CC2)cc1F` yielded a melting point of 79 to 83 °C. Take `CN(c1cccc(C(F)(F)F)c1)c1nc2c(-c3cccc(C(=O)NCCO)c3)cccc2n1C`: the melting point fell in the range of 156 to 158 °C. `COc1ccc2c(c1)sc1nc(C=O)cn12` returned a melting point of 214 to 215 °C. As to `CCc1noc(-c2cn(-c3ccccc3OCc3ccc(Cl)cc3)cn2)n1`, the melting point fell in the range of 88 to 89 °C.

With `Cn1nccc1COc1nn2c(-c3ccccc3F)nnc2cc1C1CCC1`, the melting point fell in the range of 184 to 186 °C. The compound `Cc1cc(C)c(Nc2ccnc(Nc3ccc(C#N)cc3)n2)c(C)c1` gave a melting point of 217 to 218 °C. Then `COc1ccc(-c2csc(CO)c2)cc1`, with 136 to 138 °C; and `CN(C)c1nc(CSCCNC2=NS(=O)N=C2N)cs1` (stereo not given), with 116 to 122 °C.

For the compound `CCc1c(CC#N)ccc(O)c1O`, the melting point lay within 101 to 103 °C. Then `CC(C)(C)OC(=O)Nc1ccc(C#Cc2nccs2)cc1NC(=O)CC(=O)c1cccc(C#N)c1`, with 131 °C; and `CCOC(=O)C=Cc1cc(OCc2ccccc2)ccc1-c1ccc(-c2cccnc2)c(C(F)F)c1`, with 93 to 95 °C; and `COc1ccc(CC(=O)O)cc1C1CCCCC1`, with 112 to 114 °C. `CCOCC(=O)Nc1nc(-c2ccco2)c(C(=O)C2CCOCC2)s1` displayed a melting point of 121 to 126 °C. For `Nc1c(S(=O)(=O)C(F)(F)F)c(-c2ncon2)nn1-c1c(Cl)cc(C(F)(F)F)cc1Cl`, the melting point lay in the range of 205 to 208 °C.

Compound `C=CCc1c(OCCCSCc2nnn[nH]2)ccc(C(C)=O)c1O` yielded a melting point of 129 to 132 °C. Then `O=C(O)C(=O)c1ccco1`, with 81 to 91 °C; and `CCCN=C(Cc1ccccc1)N1CC2C(=O)CCC(c3ccccc3)(c3ccccc3)C2C1` (stereo not given), with 86 °C.

In the case of `Oc1c(C(Nc2ccc(Cl)cn2)c2ccccn2)ccc2cccnc12` (stereo not given), the melting point lay within 160 to 162 °C. Turning to `O=C(CN1CCC(CCc2ccccc2)CC1)Nc1ccc2c(c1)OCC(=O)N2`, the melting point is 200 to 203 °C. `N#CC1=NC(Cl)(Cl)N=C1Cl` came in with a melting point of 114 to 115 °C. Consider `COc1ccc2c(c1)COCc1cc(OC)c(OC)c(OC)c1-2`, for which the melting point lay in the range of 151 to 153 °C.

`O=C(O)/C(=C/c1ccccc1)CSC(=O)c1ccccc1` came in with a melting point of 160 °C. In turn, `C#CCOc1ccc2c(C)nnc(Cl)c2c1` came in with a melting point of 169 to 171 °C.

The compound `COc1ccc(C2CNC(=O)N2C)cc1OC1CC2CCC1C2` (stereo not given) registered a melting point of 142 to 144 °C. For the compound `CCOP(=O)(OCC)C(CCc1cc(C)nc2c(C#N)c(C)nn12)P(=O)(OCC)OCC`, the melting point was 49 to 50 °C. `C#CCOc1ccc2c(c1)c(-c1ccc(C(C)C)cc1)nc(=O)n2Cc1cccc(O)c1`: the melting point stood at 230 °C.

Turning to `CC(C)c1nc(CO)n(Cc2cnc3ccccc3c2)c1Sc1cc(Cl)cc(Cl)c1`, the melting point fell in the range of 167 to 170 °C.

`CCCCNCC1CCn2c(nc3ccccc32)S1` (stereo not given) had a melting point of 122 to 124 °C. Regarding `CCc1nc2csc(C(=S)OC)c2[nH]1`, the melting point was in the range of 140 to 142 °C. `CC(=O)NN=Cc1ccc(N2CCN(C)CC2)nc1F` gave a melting point of 210 to 212 °C. For the compound `CC(=O)NC(C)(C)c1ccc(C(C)N2CCN(c3ccc(F)cc3)CC2)cc1` (stereo not given), the melting point lay within 156 to 157 °C. In turn, `CCC(=O)N1CCN(C(=O)Cl)CC1` showed a melting point of 45 °C. `CCCCC(=N)NC(=O)Nc1ccc([N+](=O)[O-])cc1` gave a melting point of 187 to 191 °C. `CCC(COC)Nc1nc(C)nc(N2CCc3cc(OC)cc(Cl)c32)c1I` (stereo not given): the melting point was 150 to 152 °C. For the compound `CCOc1ccc2c(c1)n(C1CCCCC1)c(=O)n2S(=O)(=O)c1ccc([N+](=O)[O-])cc1OC`, the melting point amounted to 162 °C. `CNc1nc2ccc(-c3nc4cc(C)ccn4c3C)cc2s1` displayed a melting point of 191 to 194 °C. `CC(C)n1nc(-c2c(Nc3ccccn3)nc(N)nc2-c2ccccc2)ccc1=O` came in with a melting point of 163 to 164 °C. In turn, `Cc1cc(C)c(N2c3ccccc3Sc3ccccc32)c(C)c1` displayed a melting point of 192 to 200 °C. With `CN(C)CCSc1nnc(SCN2C(=O)c3ccccc3S2(=O)=O)s1` the figure was 90.5 to 91.5 °C; with `CC(=O)n1cc(-c2ccccc2)c(-n2cnnc2)n1`, 165 to 168 °C. Then `O=C1OCCN1CCCn1ccnc1[N+](=O)[O-]`, with 89 to 91 °C. Compound `Cc1ccc(N2CCN3C(=O)CCC3C2=O)cc1` (stereo not given) yielded a melting point of 115 to 117 °C.

In turn, `NC(=O)[C@@H]1[C@H](Nc2c(Br)cnc3[nH]c(-c4ccc(N5CCOCC5)nc4)nc23)[C@H]2C=C[C@@H]1C2` had a melting point of 288 to 290 °C.

As for `CCOC(=O)CCCn1c2c(c(=O)n3nc(-c4ccccc4)cc13)CN(C1CCCCC1)C2=O`, the melting point lay within 195 to 196 °C. In turn, `CNC(=O)Oc1ccc2c(c1)c1c(n2C)C2(CC1)CCN(C(=O)c1ccccc1)CC2` displayed a melting point of 189 to 190 °C. As for `CCOC(=O)c1sc(SC)c2c1CCc1nc(-c3ccccc3)[nH]c1-2`, the melting point fell in the range of 218 to 219 °C.

For the compound `O=S(=O)(O)c1ccc(Nc2ccnc3cc(Cl)ccc23)cc1Cl`, the melting point is 280 to 285 °C.

Compound `O=S(=O)(Nc1ccc2[nH]ncc2c1)C1CCNCC1` showed a melting point of 120 to 123 °C. `CCOC(=O)c1ccc(-c2ncc(C#Cc3ccccc3)s2)s1` came in with a melting point of 137 to 141 °C. Then `COc1ccc2nc(C(=O)O)cnc2c1`, with 248 °C; and `Cn1c(C(F)(F)F)ccc(-c2c(F)cc(Cl)c3oc(CBr)cc23)c1=O`, with 142 to 144 °C.
